# Measurements: patent US9708336B2, “Metallo-beta-lactamase inhibitors” (priority 2014, dated 2017)
# Where two headings read alike, the source gives them in different places.
# Assays:
# VIM-1 = VIM-1 (Pseudomonas aeruginosa (strain ATCC 15692 / DSM 22644 / CIP 104116 / JCM 14847 / LMG 12228 / 1C / PRS 101 / PAO1), UniProt A0A0F7KYQ8); test: Enzyme activity: determination of IC50, fluorescence assay with CCF2-FA substrate (VIM-1); format: biochemical; details: CCF2-FA fluorescence assay
# IMP-1 = IMP-1 (Serratia marcescens, UniProt P52699); test: biochemical; format: biochemical; details: IMP-1 enzyme, CCF2-FA fluorescence assay; read-out: IMP-1 IC50
# [1] = test system: Serratia marcescens expressing IMP-1 (CL5741); test: Antibiotic potentiation activity: synergistic concentration (MITC95) with imipenem, OD600 growth; format: cell-based; details: Serratia marcescens expressing IMP-1 (CL5741), 95% growth inhibition
# In short: (§1)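 CLB30005 was precultured on Mueller Hinton agar with 8 ug/ml imipenem, the other strains on trypticase soy agar with 5% sheep blood, overnight at 35 °C. Saline suspensions diluted 1:100 in 1.1× CAMHB received compound and 4 μg/ml imipenem, then 22–24 h at 35 °C before absorbance reading.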
# [2] = test system: Escherichia coli expressing NDM-1 (CLB30016); test: as above; format: cell-based; details: Escherichia coli expressing NDM-1 (CLB30016), 95% growth inhibition
# In short: as §1
# [3] = test system: Klebsiella pneumoniae expressing VIM-1 (IHMA599644); test: as above; format: cell-based; details: Klebsiella pneumoniae expressing VIM-1 (IHMA599644), 95% growth inhibition
# In short: as §1
# NDM-1 = NDM-1 (Klebsiella pneumoniae, UniProt C7C422); test: biochemical; format: biochemical
# [4] = VIM-1 enzyme, read-out: VIM-1 IC50
# [5] = NDM-1 enzyme, CCF2-FA fluorescence assay, read-out: NDM-1 IC50
# Sequence of IMP-1 (P52699 whole entry, looked up): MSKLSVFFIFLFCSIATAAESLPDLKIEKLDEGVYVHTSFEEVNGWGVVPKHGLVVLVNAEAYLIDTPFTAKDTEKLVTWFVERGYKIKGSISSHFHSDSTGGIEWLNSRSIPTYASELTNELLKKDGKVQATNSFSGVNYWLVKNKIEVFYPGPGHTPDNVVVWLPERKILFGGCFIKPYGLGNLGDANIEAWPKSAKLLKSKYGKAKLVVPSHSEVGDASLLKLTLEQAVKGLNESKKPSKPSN
# Sequence of NDM-1 (C7C422 whole entry, looked up, species assumed): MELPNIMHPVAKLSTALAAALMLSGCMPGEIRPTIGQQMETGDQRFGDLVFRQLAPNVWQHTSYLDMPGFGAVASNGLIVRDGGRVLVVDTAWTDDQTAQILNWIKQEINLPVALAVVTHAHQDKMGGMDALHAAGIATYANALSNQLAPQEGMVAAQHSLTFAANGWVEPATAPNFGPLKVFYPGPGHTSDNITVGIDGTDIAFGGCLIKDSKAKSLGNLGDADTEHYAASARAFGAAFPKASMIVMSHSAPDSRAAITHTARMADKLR
Structure (SMILES),IC50 (VIM-1; [4]) [nM],IC50 (IMP-1) [nM],Serratia marcescens MITC95 [1] [µM],Escherichia coli MITC95 [2] [µM],Klebsiella pneumoniae MITC95 [3] [µM],IC50 (NDM-1; [5]) [nM],"IC50 (VIM-1; VIM-1 IC50, VIM-1 enzyme) [nM]",IC50 (NDM-1) [nM]
"NS(=O)(=O)c1c(C(F)(F)F)ccc(-c2ccc(C3CCNC3)cc2)c1-c1nn[nH]n1 (stereo not drawn) [Example 443, 4′-(pyrrolidin-3-yl)-2-(2H-tetrazol-5-yl)-4-(trifluoromethyl)-[1,1′-biphenyl]-3-sulfonamide]",0.497,1.34,0.09375,0.7734,0.8906,0.909,–,–
"C[N+]1(C)CCC(c2ccc(-c3ccc(C(F)(F)F)c(S(N)(=O)=O)c3-c3nn[nH]n3)cc2)C1 (stereo not drawn) [Example 444, 1,1-dimethyl-3-(3′-sulfamoyl-2′-(2H-tetrazol-5-yl)-4′-(trifluoromethyl)-[1,1′-biphenyl]-4-yl)pyrrolidin-1-ium]",1.35,3.27,0.3906,2.344,4.688,2.5,–,–
"NS(=O)(=O)c1c(C(F)(F)F)ccc(-c2ccc(CO)cc2)c1-c1nn[nH]n1 [Example 445, 4′-(hydroxymethyl)-2-(2H-tetrazol-5-yl)-4-(trifluoromethyl)-[1,1′-biphenyl]-3-sulfonamide]",1.34,1.17,0.125,1.547,4.688,1.28,–,–
"N=C(N)N1Cc2ccc(-c3ccc(C(F)(F)F)c(S(N)(=O)=O)c3-c3nn[nH]n3)cc2C1 [Example 446, 5-(3-sulfamoyl-2-(2H-tetrazol-5-yl)-4-(trifluoromethyl)phenyl)isoindoline-2-carboximidamide]",0.252,19.4,0.3906,1.563,1.563,15.4,–,–
"N=C(N)NC1Cc2ccc(-c3ccc(C(F)(F)F)c(S(N)(=O)=O)c3-c3nn[nH]n3)cc2C1 (stereo not drawn) [Example 447, 3-(2-guanidino-2,3-dihydro-1H-inden-5-yl)-2-(2H-tetrazol-5-yl)-6-(trifluoromethyl)benzenesulfonamide]",0.171,4.26,0.125,1.086,0.8906,7.13,–,–
"NC(=O)Cc1ccc(-c2ccc(C(F)(F)F)c(S(N)(=O)=O)c2-c2nn[nH]n2)cc1 [Example 448, 2-(3′-sulfamoyl-2′-(2H-tetrazol-5-yl)-4′-(trifluoromethyl)-[1,1′-biphenyl]-4-yl)acetamide]",0.962,2.17,0.1953,3.125,6.25,2.1,–,–
"NC(=O)CCc1ccc(-c2ccc(C(F)(F)F)c(S(N)(=O)=O)c2-c2nn[nH]n2)cc1 [Example 449, 3-(3′-sulfamoyl-2′-(2H-tetrazol-5-yl)-4′-(trifluoromethyl)-[1,1′-biphenyl]-4-yl)propanamide]",–,0.537,0.1953,0.7813,6.25,0.653,0.815,–
"NS(=O)(=O)c1c(C(F)(F)F)ccc(N2CCC(c3ccc(CO)cc3)CC2)c1-c1nn[nH]n1 [Example 450, 3-(4-(4-(hydroxymethyl)phenyl)piperidin-1-yl)-2-(2H-tetrazol-5-yl)-6-(trifluoromethyl)benzenesulfonamide]",1.8,1.28,0.03125,18.75,75,1.62,–,–
"NC1CCC(Cc2ccc(-c3ccnc4ccccc34)c(-c3nn[nH]n3)c2S(N)(=O)=O)CC1 (stereo not drawn) [Example 451, 6-(((1s,4s)-4-aminocyclohexyl)methyl)-3-(quinolin-4-yl)-2-(2H-tetrazol-5-yl)benzenesulfonamide]",0.476,47.1,3.125,1.563,3.125,0.977,–,–
"N#CCCc1ccc(-c2ccnc3ccccc23)c(-c2nn[nH]n2)c1S(N)(=O)=O [Example 453, 6-(2-cyanoethyl)-3-(quinolin-4-yl)-2-(2H-tetrazol-5-yl)benzenesulfonamide]",0.665,111,12.5,4.688,6.25,6.88,–,–
"NS(=O)(=O)c1c(CC2CCNCC2)ccc(-c2ccc(C3CCNCC3)cc2)c1-c1nn[nH]n1 [Example 456, 4′-(piperidin-4-yl)-4-(piperidin-4-ylmethyl)-2-(2H-tetrazol-5-yl)-[1,1′-biphenyl]-3-sulfonamide]",3.44,9.79,0.5859,0.5859,1.172,4.58,–,–
"NC[C@H]1CC[C@H](Cc2ccc(-c3ccc(C4CCNCC4)cc3)c(-c3nn[nH]n3)c2S(N)(=O)=O)CC1 [Example 457, 4-(((1r,4r)-4-(aminomethyl)cyclohexyl)methyl)-4′-(piperidin-4-yl)-2-(2H-tetrazol-5-yl)-[1,1′-biphenyl]-3-sulfonamide]",0.803,3.05,0.1953,0.3906,1.172,1.1,–,–
"NS(=O)(=O)c1c(CC(F)(F)F)ccc(-c2ccc(C3CCNCC3)cc2)c1-c1nn[nH]n1 [Example 458, 4′-(piperidin-4-yl)-2-(2H-tetrazol-5-yl)-4-(2,2,2-trifluoroethyl)-[1,1′-biphenyl]-3-sulfonamide]",2.12,2.39,0.125,3.125,3.125,22.1,–,–
"NC1CCC(c2ccc(-c3ccc(C4CCNCC4)cc3)c(-c3nn[nH]n3)c2S(N)(=O)=O)CC1 (stereo not drawn) [Example 459, 4-(4-aminocyclohexyl)-4′-(piperidin-4-yl)-2-(2H-tetrazol-5-yl)-[1,1′-biphenyl]-3-sulfonamide]",112,86.6,1.172,6.25,3.125,1120,–,–
"NS(=O)(=O)c1c(CCC2CCNCC2)ccc(-c2ccc(C3CCNCC3)cc2)c1-c1nn[nH]n1 [Example 460, 4′-(piperidin-4-yl)-4-(2-(piperidin-4-yl)ethyl)-2-(2H-tetrazol-5-yl)-[1,1′-biphenyl]-3-sulfonamide]",10.4,16.6,0.3906,0.5859,1.563,–,–,3.97
"NS(=O)(=O)c1c(CC[C@H]2CC[C@H](N)CC2)ccc(-c2ccc(C3CCNCC3)cc2)c1-c1nn[nH]n1 [Example 461, 4-(2-((1r,4s)-4-aminocyclohexyl)ethyl)-4′-(piperidin-4-yl)-2-(2H-tetrazol-5-yl)-[1,1′-biphenyl]-3-sulfonamide]",1.67,4.07,1.563,1.563,4.688,1.92,–,–
"NS(=O)(=O)c1c(CC[C@H]2CC[C@@H](N)CC2)ccc(-c2ccc(C3CCNCC3)cc2)c1-c1nn[nH]n1 [Example 462, 4-(2-((1s,4r)-4-aminocyclohexyl)ethyl)-4′-(piperidin-4-yl)-2-(2H-tetrazol-5-yl)-[1,1′-biphenyl]-3-sulfonamide]",8.13,11.5,1.563,0.7813,18.75,3.8,–,–
"NS(=O)(=O)c1c(CC2(F)CCNCC2)ccc(-c2ccc(C3CCNCC3)cc2)c1-c1nn[nH]n1 [Example 464, 4-((4-fluoropiperidin-4-yl)methyl)-4′-(piperidin-4-yl)-2-(2H-tetrazol-5-yl)-[1,1′-biphenyl]-3-sulfonamide]",1.95,18.7,1.563,0.7813,1.563,3.82,–,–
"NS(=O)(=O)c1c(CC2CCNCC2(F)F)ccc(-c2ccc(C3CCNCC3)cc2)c1-c1nn[nH]n1 (stereo not drawn) [Example 465, 4-((3,3-difluoropiperidin-4-yl)methyl)-4′-(piperidin-4-yl)-2-(2H-tetrazol-5-yl)-[1,1′-biphenyl]-3-sulfonamide]",1.64,3.31,3.125,3.125,12.5,2.7,–,–
